SMILES strings stand for the structures.

For assay [1], the system named is Ctenocephalides Felis (Cat Flea). Put plainly: Activity in vitro against Ctenocephalides felis (cat flea), Assay A. Particulars: adult fleas fed on treated blood for 24 h; for pest or weed control at 100 ppm: Ctenocephalides felis, dead fleas counted, read-out: efficacy (EC80). Here is the method:
Activity In Vitro Against Ctenocephalides Felis (Cat Flea)—Assay A
A mixed adult population of fleas is placed in a suitably formatted 96-well plate allowing fleas to access and feed on treated blood via an artificial feeding system. Fleas are fed on treated blood for 24 h, after which the compound effect is recorded. Insecticidal activity is determined on the basis of the number of dead fleas recovered from the feeding system.

The subject of assay [2] is Lucilla Cuprina (Australian sheep blowfly). Put plainly: Activity in vitro against Lucilla cuprina (Australian sheep blowfly), Assay A. The following applies: eggs on agar-based medium; for pest or weed control at 32 ppm: Lucilia cuprina, 96 h, 4 days at 28° C. and 60% relative humidity, read-out: efficacy (EC80). Here is the method:
Activity in vitro against Lucilla Cuprina (Australian sheep blowfly)—Assay A
Freshly laid blowfly eggs are used to seed a suitably formatted microplate containing the test substances to be evaluated for antiparasitic activity. Each compound is tested by serial dilution in order to determine its minimum efficacy dose. The test compounds are embedded in an agar-based nutritive medium allowing the full development of the eggs into 3rd instar larvae. The incubation lasts for 4 days at 28° C. and 60% relative humidity. Egg-hatching and ensuing larval development are also recorded to identify a possible growth-regulating activity.

Assay [3] relates to Rhipicephalus sanguineus (Dog Tick). Description: Activity in vitro against Rhipicephalus sanguineus (dog tick), Assay A, contact test. The following applies: adult ticks; for pest or weed control at 100 ppm: Rhipicephalus sanguineus, 168 h, 28° C. and 80% relative humidity for 7 days, read-out: efficacy (EC80). Here is the method:
Activity In Vitro Against Rhipicephalus sanguineus (Dog Tick)—Assay A
A contact test is performed by pre-coating microplate with serial dilution of compound allowing evaluating anti-parasitic activity by contact against ticks. A mixed adult tick population is then distributed to each well of the plate and incubated at 28° C. and 80% relative humidity for 7 days, during which the effect of the test compound is monitored. Acaricidal activity is confirmed if and when adult ticks are dead.

In assay [4] the test system is Engorged Female Rhipicephalus microplus (Cattle Tick). Put plainly: Activity in vitro against engorged female Rhipicephalus microplus (cattle tick), contact test. Particulars: 672 h, organophosphorous-resistant Ultimo strain, evaluation 28 days later on mortality, oviposition and hatched larvae, read-out: efficacy (EC80). Here is the method: Activity In Vitro Against Engorged Female Rhipicephalus microplus (Cattle Tick)
A contact test is performed by pre-coating 6-well microplates with serial dilution of the compound to be evaluated for anti-parasitic activity. 10 engorged female ticks of the organophosphorous-resistant Ultimo strain are distributed to each well in triplicates. Plates are then incubated at 28° C. and 80% relative humidity. Evaluation takes place 28 days later based on mortality, oviposition and hatched larvae. […] Activity In Vivo Against Rhipicephalus sanguineus Nymphs on Mongolian Gerbils (Meriones unguiculatus) (Spray Application)

Assay [5] concerns Rhipicephalus sanguineus Nymphs. Put plainly: Activity in vivo against Rhipicephalus sanguineus nymphs on Mongolian gerbils. Particulars: topical, 0 h, pour on application day 0, tick number reduction vs placebo, Abbott's formula, read-out: efficacy (EC90). Here is the method:
On day 0, gerbils are treated with the test compound at a given dose by pour on application. On day +1 (+2), the animals are infested with nymphs of R. sanguineus. Ticks are left on the animals until full repletion. Seven days after infestation nymphs dropped off fully engorged are collected and counted. They are kept until molting to also evaluate growth regulating activity of the test compound. Efficacy in killing (and growth regulating) is expressed as a tick number (and molted tick number) reduction in comparison with a placebo treated group, using the Abbott's formula:
n=number of live ticks. T=treated group. Co=control/placebo group.

The subject of the next assay is Lice (Polyplax serrata). Description: Activity in vivo against lice (Polyplax serrata) in mice (topical). The following applies: pour-on application, live lice on day +4 and +14, Henderson & Tilton formula, read-out: efficacy (EC90). Here is the method: Activity In Vivo Against Lice (Polyplax serrata) in Mice (Topical) Mice naturally infected with P. serrata are treated with the formulated test compound on day 0 by pour-on application. On day +4 and +14, efficacy is evaluated by counting the number of live lice under a binocular. Efficacy at the two time points is expressed as a comparison of lice numbers counted on the same mouse before treatment, using the Henderson & Tilton formula, taking also into account lice numbers found on mice treated with the empty formulation (placebo group): [formula] n=number of lice, T=treated group, Co=control/placebo group.

Take `C#CCN(C(=O)c1cc(Cl)cc(C(F)(F)F)c1)C(C)c1ncnn1-c1ncccn1` (stereo not shown) [Example 41, 3-Chloro-N-prop-2-ynyl-N-[1-(2-pyrimidin-2-yl-1,2,4-triazol-3-yl)ethyl]-5-(trifluoromethyl)benzamide]: the pest or weed control at 100 ppm in assay [1] and in assay [3] was above 80% in each case. Also, the pest or weed control at 32 ppm in assay [2] was above 80%. Moreover, the EC50 is listed as 1 ppm in assay [2] (4 days at 28° C.) and 32 ppm in assay [3] (7 days). Further, in assay [4], the pest or weed control at 200 ppm was above 80%. Moreover, the inhibition in vivo at 32 mg/kg (in assay [5]; in the assay on Lice (Polyplax serrata)) was above 90% each time.
Regarding `CC(c1ncnn1-c1ncccn1)N(CC1CC1)C(=O)c1cncc(C(F)(F)F)c1` (stereo not shown) [Example 28, N-(Cyclopropylmethyl)-N-[1-(2-pyrimidin-2-yl-1,2,4-triazol-3-yl)ethyl]-5-(trifluoromethyl)pyridine-3-carboxamide], the pest or weed control at 100 ppm in assay [1] and in assay [3] was above 80% each time. In addition, the pest or weed control at 32 ppm in assay [2] is above 80%. Moreover, the inhibition in vivo at 32 mg/kg (in assay [5]; with Lice (Polyplax serrata)) was above 90% each time.
Turning to `C#CCN(C(=O)c1cc(C(F)(F)F)cc(C(F)(F)F)c1)C(C)c1ncnn1-c1ncccn1` (stereo not shown) [Example 35, N-Prop-2-ynyl-N-[1-(2-pyrimidin-2-yl-1,2,4-triazol-3-yl)ethyl]-3,5-bis(trifluoromethyl)benzamide], the pest or weed control at 100 ppm in assay [1] and in assay [3] was above 80% in each case. Besides, the pest or weed control at 32 ppm in assay [2] was above 80%. Also, the pest or weed control at 200 ppm in assay [4] was above 80%. Also, the inhibition in vivo at 32 mg/kg (in assay [5]; with Lice (Polyplax serrata)) was above 90% throughout.
Take `CC(c1ncnn1-c1ncccn1)N(CCC(F)(F)F)C(=O)c1cc(C(F)(F)F)cc(C(F)(F)F)c1` (stereo not shown) [Example 20, N-[1-(2-Pyrimidin-2-yl-1,2,4-triazol-3-yl)ethyl]-3,5-bis(trifluoromethyl)-N-(3,3,3-trifluoropropyl)benzamide]: the pest or weed control at 100 ppm in assay [1] and in assay [3] was above 80% each time. Besides, in assay [2], the pest or weed control at 32 ppm is above 80%. In addition, the pest or weed control at 200 ppm in assay [4] is above 80%. Further, the inhibition in vivo at 32 mg/kg (in assay [5]; in the assay with Lice (Polyplax serrata)) was above 90% throughout.
On to `CC(c1ncnn1-c1ncccn1)N(CC1CC1)C(=O)c1cc(Cl)cc(OC(F)(F)F)c1` (stereo not shown) [Example 37, 3-chloro-N-(cyclopropylmethyl)-N-[1-(2-pyrimidin-2-yl-1,2,4-triazol-3-yl)ethyl]-5-(trifluoromethoxy)benzamide], for which the pest or weed control at 100 ppm in assay [1] and in assay [3] was above 80% in each case. Moreover, in assay [2], the pest or weed control at 32 ppm was above 80%. The pest or weed control at 200 ppm in assay [4] is above 80%. The inhibition in vivo at 32 mg/kg (in assay [5]; in the assay on Lice (Polyplax serrata)) was above 90% in each case.
On to `CC(c1ncnn1-c1ccccn1)N(CC1CC1)C(=O)c1cc(Cl)cc(OC(F)(F)F)c1` (stereo not shown) [Example 10, 3-Chloro-N-(cyclopropylmethyl)-N-[1-[2-(2-pyridyl)-1,2,4-triazol-3-yl]ethyl]-5-(trifluoromethoxy)benzamide], for which the pest or weed control at 100 ppm in assay [1] and in assay [3] was above 80% each time. The pest or weed control at 32 ppm in assay [2] is above 80%. Further, in assay [4], the pest or weed control at 200 ppm was above 80%. The inhibition in vivo at 32 mg/kg (in assay [5]; with Lice (Polyplax serrata)) was above 90% throughout.
Consider `CC(c1ncnn1-c1ccccn1)N(CCC(F)(F)F)C(=O)c1cc(C(F)(F)F)cc(C(F)(F)F)c1` (stereo not shown) [Example 12, N-[1-[2-(2-Pyridyl)-1,2,4-triazol-3-yl]ethyl]-3,5-bis(trifluoromethyl)-N-(3,3,3-trifluoropropyl)benzamide], for which the pest or weed control at 32 ppm in assay [2] is above 80%. For the same compound, the pest or weed control at 100 ppm in assay [3] was above 80%. Besides, the pest or weed control at 200 ppm in assay [4] is above 80%. The inhibition in vivo at 32 mg/kg (in assay [5]; in the assay with Lice (Polyplax serrata)) was above 90% in each case.
As to `CC(c1ncnn1-c1ncccn1)N(CCF)C(=O)c1cc(C(F)(F)F)cc(C(F)(F)F)c1` (stereo not shown) [Example 19, N-(2-Fluoroethyl)-N-[1-(2-pyrimidin-2-yl-1,2,4-triazol-3-yl]ethyl]-3,5-bis(trifluoromethyl)benzamide], the pest or weed control at 100 ppm in assay [1] and in assay [3] was above 80% each time. For the same compound, in assay [2], the pest or weed control at 32 ppm was above 80%. For the same compound, the pest or weed control at 200 ppm in assay [4] was above 80%. In addition, the inhibition in vivo at 32 mg/kg (in assay [5]; in the assay with Lice (Polyplax serrata)) was above 90% throughout.
`C#CCN(C(=O)c1cc(Cl)cc(OC(F)(F)F)c1)C(C)c1ncnn1-c1ccccn1` (stereo not shown) [Example 18, 3-Chloro-N-prop-2-ynyl-N-[1-[2-(2-pyridyl)-1,2,4-triazol-3-yl]ethyl]-5-(trifluoromethoxy)benzamide]: in assay [1], the pest or weed control at 100 ppm is above 80% and the EC80 is recorded as 10 ppm. Besides, the pest or weed control at 32 ppm in assay [2] is above 80%. Moreover, the pest or weed control at 200 ppm in assay [4] is above 80%. In assay [5], the inhibition in vivo at 32 mg/kg is above 90%. Besides, in the assay on Lice (Polyplax serrata), the inhibition in vivo at 32 mg/kg was above 90%.
`CC(c1ncnn1-c1ncccn1)N(CC1CC1)C(=O)c1cc(C(F)(F)F)cc(C(F)(F)F)c1` (stereo not shown) [Example 48, N-(Cyclopropylmethyl)-N-[1-(2-pyrimidin-2-yl-1,2,4-triazol-3-yl)ethyl]-3,5-bis(trifluoromethyl)benzamide]: the pest or weed control at 100 ppm in assay [1] and in assay [3] was above 80% throughout. Moreover, the pest or weed control at 32 ppm in assay [2] was above 80%. Also, the pest or weed control at 200 ppm in assay [4] is above 80%. In addition, the inhibition in vivo at 32 mg/kg (in assay [5]; with Lice (Polyplax serrata)) was above 90% in each case.
Consider `CC(c1ncnn1-c1ccccn1)N(CC1CC1(F)F)C(=O)c1cc(C(F)(F)F)cc(C(F)(F)F)c1` (stereo not shown) [Example 16, N-[(2,2-Difluorocyclopropyl)methyl]-N-[1-[2-(2-pyridyl)-1,2,4-triazol-3-yl]ethyl]-3,5-bis(trifluoromethyl)benzamide], for which, in assay [1], the pest or weed control at 100 ppm is above 80%. The pest or weed control at 32 ppm in assay [2] is above 80%. Also, in assay [4], the pest or weed control at 200 ppm is above 80%. The inhibition in vivo at 32 mg/kg (in assay [5]; in the assay on Lice (Polyplax serrata)) was above 90% each time.
For `CC(c1ncnn1-c1ncccn1)N(CC1CC1)C(=O)c1cc(Cl)cc(C(F)(F)F)c1` (stereo not shown) [Example 40, 3-Chloro-N-(cyclopropylmethyl)-N-[1-(2-pyrimidin-2-yl-1,2,4-triazol-3-yl)ethyl]-5-(trifluoromethyl)benzamide], the pest or weed control at 100 ppm in assay [1] and in assay [3] was above 80% throughout. For the same compound, the pest or weed control at 32 ppm in assay [2] is above 80%. In assay [4], the pest or weed control at 200 ppm was above 80%. Besides, the inhibition in vivo at 32 mg/kg (in assay [5]; in the assay with Lice (Polyplax serrata)) was above 90% in each case.
With `C[C@@H](c1ncnn1-c1ncccn1)N(CC1CC1)C(=O)c1cc(C(F)(F)F)cc(C(F)(F)F)c1` [Example 49, N-(Cyclopropylmethyl)-N-[(1S)-1-(2-pyrimidin-2-yl-1,2,4-triazol-3-yl)ethyl]-3,5-bis(trifluoromethyl)benzamide], the pest or weed control at 100 ppm in assay [1] and in assay [3] was above 80% throughout. Moreover, in assay [2], the pest or weed control at 32 ppm was above 80%. Further, the inhibition in vivo at 32 mg/kg (in assay [5]; with Lice (Polyplax serrata)) was above 90% each time.

These data come from patent publication US10287276B2, “Heteroaryl-1,2,4-triazole and heteroaryl-tetrazole compounds for controlling ectoparasites” (Elanco Tiergesundheit AG, priority 2016, dated 2019).
